The target in test [1] is T1, TX synthase (Homo sapiens, UniProt P24557).
T1 construct: endogenous in cells; host or cells: washed human platelets
T1 sequence (P24557 1-533): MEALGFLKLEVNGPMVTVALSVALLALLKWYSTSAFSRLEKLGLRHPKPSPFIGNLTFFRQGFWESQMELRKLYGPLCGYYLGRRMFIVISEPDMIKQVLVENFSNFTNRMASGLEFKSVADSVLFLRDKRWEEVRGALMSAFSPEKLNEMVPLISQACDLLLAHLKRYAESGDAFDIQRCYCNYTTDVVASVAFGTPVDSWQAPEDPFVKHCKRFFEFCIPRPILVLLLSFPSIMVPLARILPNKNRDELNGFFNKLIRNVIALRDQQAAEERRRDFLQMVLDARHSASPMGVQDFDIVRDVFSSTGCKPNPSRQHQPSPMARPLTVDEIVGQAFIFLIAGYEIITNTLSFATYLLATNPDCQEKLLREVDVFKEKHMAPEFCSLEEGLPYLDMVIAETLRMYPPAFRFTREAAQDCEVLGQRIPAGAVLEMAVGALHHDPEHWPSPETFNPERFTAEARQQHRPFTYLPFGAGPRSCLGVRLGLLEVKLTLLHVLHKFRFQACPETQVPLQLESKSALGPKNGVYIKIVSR
As to the kind of experiment: collagen-evoked TxB2 (and HHT) formation in washed human platelets, HPLC. The following applies: for TX enzyme activity (% of control values, mean ± SD): n = 3, TxB2 and HHT. Type of test: cell-based. On the procedure: 0.5 ml of platelet suspension was added to siliconized glass tubes (four at a time) and heated with magnetic stirring to 37° for 1 min in a platelet aggregometer (PAP-4C). Either vehicle alone (ethanol, 1 μl) or hepoxilin analog was then added, followed two min later by agonist (collagen: 2 μg; PGH2: 100 ng/0.5 ml; U46619: 10 ng/0.5 ml or I-BOP: 2 ng/0.5 ml). The response was recorded for the next 5 min. In experiments where analysis of TxB2 and HHT were to be made by HPLC, the platelet suspension at the end of the experiment was diluted with ethyl acetate, 100 ng of prostaglandin B1 was added as internal standard, and the mixture was acidified to pH 3 with 0.1 N HCl. After centrifugation, the organic layer was separated, washed twice with water to neutrality, and evaporated to dryness. Half of the sample was taken and was resuspended in 1 ml ethyl acetate containing 20 μg ADAM reagent, and was left in the dark for 2 h (38). The solvent was then evaporated and the residue was acetylated with a solution of pyridine/acetic anhydride (3/1, v/v) during 16 h at 23°. The reagents were evaporated to dryness and the residue was resuspended in acetonitrile/water for HPLC analysis. In experiments where the conversion of tritiated PGH2 was to be monitored, the procedure described above was repeated with tritiated PGH2 instead of unlabeled PGH2. After extraction of the sample as described above, the radiolabeled compounds were analyzed by TLC. Dose response curves for varying amounts of test compounds were generated and the data expressed as % inhibition of collagen-induced platelet aggregation. Each point was investigated 5 times and statistical analysis of the data was carried out using Macintosh Statview statistical software.
Measurement of eicosanoids formed by platelets during treatment with collagen or the TP receptor agonists in the presence or absence of PBT-3 was carried out by HPLC after appropriate derivatization with a fluorescent tag (anthracyl diazomethane—ADAM) which forms a fluorescent ester (44). The method was adapted to measure the following compounds: TxB2, HHT, 12-HETE and M. The platelet suspension at the end of the experiment was mixed with ethyl acetate, 100 ng of prostaglandin B1 was added as internal standard and the mixture was acidified to pH 3 with 0.1 N HCl. After centrifugation, the organic layer was separated, washed twice with water to neutrality, and evaporated to dryness. The residue was resuspended in ethyl acetate and half of the sample was taken. It was diluted to 0.2 ml with ethyl acetate containing 20 μg ADAM reagent, and was left in the dark for 2 h. The solvent was then evaporated and the residue was acetylated with a solution of pyridine/acetic anhydride (3/1, v/v) for 16 h at 23°. The reagents were evaporated to dryness and the residue was resuspended in acetonitrile/water for HPLC analysis. Dose response curves for varying amounts of test compounds were generated and the data were expressed as % inhibition of agonist-induced platelet aggregation. Each point was investigated 3 times and statistical analysis of the data was carried out using Macintosh Statview statistical software.
Analysis of the anthryl (ADAM)-acetate derivative of TxB2, HHT and 12 HETE in the extracted platelet samples was carried out on a Hewlett Packard (1100 series) HPLC to which was attached a Shimadzu fluorescent detector (RF-10AXL). The detector was operated with excitation at 364 nm, emission at 411 nm. Chromatographic separation of the compound was carried out on a Waters C18 Novapak column (3.9×300 mm) using acetonitrile/water 80/20 at injection with a linear gradient to 100% acetonitrile during 20 min. TLC separation of tritiated platelet extracts was carried out on 20 cm silica gel G glass plates (Brinkman), with chloroform/methanol/acetic acid/water (90/9/1/0.65, v/v) as developing solvent in a paper lined glass tank at 23°. […]

For test [2], the target named is T2, platelet TP receptor (Homo sapiens, UniProt P21731).
T2 construct: endogenous in cells; host or cells: washed human platelets
T2 sequence (P21731 1-343): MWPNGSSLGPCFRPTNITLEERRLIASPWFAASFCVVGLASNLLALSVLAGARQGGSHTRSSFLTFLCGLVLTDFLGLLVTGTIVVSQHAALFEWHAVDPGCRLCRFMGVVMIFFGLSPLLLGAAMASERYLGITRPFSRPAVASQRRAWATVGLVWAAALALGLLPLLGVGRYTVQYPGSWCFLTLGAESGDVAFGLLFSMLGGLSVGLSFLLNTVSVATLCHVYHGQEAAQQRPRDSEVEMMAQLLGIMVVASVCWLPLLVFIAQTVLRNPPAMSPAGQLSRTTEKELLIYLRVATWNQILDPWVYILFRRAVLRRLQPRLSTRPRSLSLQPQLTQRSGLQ
Put plainly: binding of 125I-BOP to platelets. Here is the method: Washed platelets were prepared as described above, except that the platelet suspension was made up at a concentration of 10×10^6 cells/0.5 ml. The binding assay involved the addition of radioligand (30,000 cpm ^125I-BOP) to all tubes in triplicate, and either various doses of unlabeled I-BOP (10^−9-10^−7 M), PBT-3 (10^−9-10^−7 M) or U46619 (10^−9-10^−7 M) in 1 μl ethanol. Additional tubes containing excess unlabeled I-BOP were included to assess the extent of non-specific binding.

Structures are written as SMILES.

By IC50 is commonly meant the point on the concentration scale where inhibition reaches its midpoint. Regarding `CCCCC/C=C\CC1CC1[C@@H](O)/C=C\C/C=C\CCCC(=O)OC` (stereo partly drawn) [PBT-3, 10(S)-hydroxy-11,12-cyclopropyl-eicosa-5Z,8Z,14Z-trienoic acid methyl ester], the “TX enzyme activity (% of control values, mean ± SD)” value in test [1] (PBT-3 0.05 μM) is reported as 94.2 ± 15.2^NS % of control; in test [1] (PBT-3 0.30 μM), 65.7 ± 6.0 % of control; in test [1] (PBT-3 0.60 μM), 41.0 ± 4.7 % of control; in test [1] (PBT-3 3.00 μM), 29.9 ± 6.7 % of control. For the same compound, the “inhibition of TxB2 formation in platelets, in words” value in test [1] (Table 1, last column) was “significantly inhibited”. Further, the IC50 came to 800 nM in test [1] (washed human platelets, read-out: IC50 for block of collagen-evoked formation of thromboxane) and 8.1 nM in test [2] (10×10^6 cells/0.5 ml, read-out: IC50 for competition with 125I-BOP binding to platelets). In addition, the “fold less active than I-BOP in competing with 125I-BOP binding” value in test [2] is “about 16 fold”.

Values taken from patent US8071654B2, “Inhibitors of thromboxane formation and action” (priority 2000, dated 2011).
